Source: patent US6171866A, “Luminescence indicator for determining calcium ions” (AVL Medical Instruments, priority 1998, dated 2001)

Assay: Determination of the Kd values of ionophores from UV-absorption Ca^2+ titration curves
Type: binding
Details: aqueous solution, 30 mmol/l tris/HCl buffer, CO2-free, pH 7.4; absorption at 248 nm; 0.00001 to 0.5 mol/l Ca^2+; calculated from found pKd
Procedure: wherein, at a given ionic strength and temperature, the dissociation constant (Kd) is given by Equation 2, [formula]
The PKd value (Equation 3) is the negative common logarithm of the dissociation constant:
The absorption values in dependence on the Ca^2+ concentration were measured using a commercial photometer, at an absorption wavelength of 248 nm. The resulting titration curves were normalized to the value Amax =1 at a Ca^2+ concentration of 0.00001 mol/l using Equation 4 (see below).
The Kd values of the ionophores were determined from the measured absorption values of the Ca^2+ -titration curves according to Equation 3 (see above) and Equation 4 [formula]
wherein Ax is the normalized absorption value at the given Ca^2+ concentration, Amax is the absorption value at 0.00001 mol/l Ca^2+ and pKd has the meaning indicated in Equation 3.
They were determined from the found pKd values by means of Equation 3.

First: CCOCCN(CCN(CC(=O)O)CC(=O)O)c1ccccc1OC [Ionophore X3, Potassium N-[2-(N'-ethoxyethyl-N'-(2-methoxyphenyl)aminoethyl)]-imino-N,N-diacetate]
Second: COCCN(CCN(CC(=O)O)CC(=O)O)c1ccccc1OC [Ionophore X2, Potassium N-[2-(N'-methoxyethyl-N'-(2-methoxyphenyl)aminoethyl)]-imino-N,N-diacetate]
The Kd of the first is 3.2-fold higher: 1040 µM for the first, 330 µM for the second.

COCCN(CCOC)c1ccccc1OCCN(CC(=O)O)CC(=O)O [Ionophore X9, Potassium N-[2-(N',N'-dimethoxyethyl)aminophenoxyethyl]imino-N,N-diacetate] and CCCCN(CCN(CC(=O)O)CC(=O)O)c1ccccc1OC [Ionophore X4, Potassium N-[2-(N'-butyl-N'-(2-methoxyphenyl)aminoethyl)]-imino-N,N-diacetate] are within 1.5-fold of each other in Kd: 6160 µM for the first, 9140 µM for the second.

First: CCOc1ccccc1N(CCOCC(=O)O)CCOCC(=O)O [Ionophore X7, Potassium o-phenetidine-N,N-diethoxyacetate]
Second: COc1ccccc1N(CCOCC(=O)O)CCOCC(=O)O [Ionophore X6, Potassium-o-anisidine-N,N-diethoxyacetate]
The Kd of the first is 5.5-fold higher: 1090 µM for the first, 200 µM for the second. The second binds more tightly here.

First: COc1ccc(Cl)cc1N(CCOCC(=O)O)CCOCC(=O)O [Ionophore X8, Potassium 5-chloro-o-anisidine-N,N-diethoxyacetate]
Second: COc1ccccc1N(CCOc1ccccc1)CCN(CC(=O)O)CC(=O)O [Ionophore X5, Potassium N-[2-(N'-phenoxyethyl-N'-(2-methoxyphenyl)aminoethyl)]-imino-N,N-diacetate]
The Kd of the first is 9.7-fold lower: 720 µM for the first, 6960 µM for the second. The first binds more tightly here.
